Data as given in ChEMBL document CHEMBL1135338, “Protease inhibitors: synthesis of matrix metalloproteinase and bacterial collagenase inhibitors incorporating 5-amino-2-mercapto-1,3,4-thiadiazole zinc binding functions” (Bioorg Med Chem Lett, 2002).

Columns and labels:
[1] = target: Neutrophil collagenase (Homo sapiens, UniProt P22894); experiment: Inhibition of human matrix metalloprotease-8
[2] = target: Matrix metalloproteinase-9 (Homo sapiens, UniProt P14780); experiment: Inhibition of human matrix metalloprotease-9
Matrix metalloproteinase-9, sequence (P14780 whole entry): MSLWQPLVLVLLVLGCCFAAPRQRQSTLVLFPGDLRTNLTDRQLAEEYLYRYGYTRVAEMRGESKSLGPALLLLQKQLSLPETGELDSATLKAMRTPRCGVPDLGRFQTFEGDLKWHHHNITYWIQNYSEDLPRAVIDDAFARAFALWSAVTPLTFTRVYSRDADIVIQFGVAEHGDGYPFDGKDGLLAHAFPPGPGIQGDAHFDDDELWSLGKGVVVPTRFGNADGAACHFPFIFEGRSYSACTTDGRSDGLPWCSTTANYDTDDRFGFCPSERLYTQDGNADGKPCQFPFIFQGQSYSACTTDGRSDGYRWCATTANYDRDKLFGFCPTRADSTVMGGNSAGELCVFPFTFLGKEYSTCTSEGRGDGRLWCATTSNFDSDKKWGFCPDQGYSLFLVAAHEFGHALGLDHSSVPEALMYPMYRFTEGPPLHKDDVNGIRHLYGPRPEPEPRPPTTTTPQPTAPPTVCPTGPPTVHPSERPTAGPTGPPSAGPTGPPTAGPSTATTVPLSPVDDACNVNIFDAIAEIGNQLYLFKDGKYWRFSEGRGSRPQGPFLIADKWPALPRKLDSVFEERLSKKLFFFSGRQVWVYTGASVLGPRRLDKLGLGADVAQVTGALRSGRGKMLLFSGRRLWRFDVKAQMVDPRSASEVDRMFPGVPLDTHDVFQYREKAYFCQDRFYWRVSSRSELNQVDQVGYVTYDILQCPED

[3] = target: T1, 72 kDa type IV collagenase (Homo sapiens, UniProt P08253); experiment: Inhibition of human matrix metalloprotease-2
T1 sequence (P08253 whole entry): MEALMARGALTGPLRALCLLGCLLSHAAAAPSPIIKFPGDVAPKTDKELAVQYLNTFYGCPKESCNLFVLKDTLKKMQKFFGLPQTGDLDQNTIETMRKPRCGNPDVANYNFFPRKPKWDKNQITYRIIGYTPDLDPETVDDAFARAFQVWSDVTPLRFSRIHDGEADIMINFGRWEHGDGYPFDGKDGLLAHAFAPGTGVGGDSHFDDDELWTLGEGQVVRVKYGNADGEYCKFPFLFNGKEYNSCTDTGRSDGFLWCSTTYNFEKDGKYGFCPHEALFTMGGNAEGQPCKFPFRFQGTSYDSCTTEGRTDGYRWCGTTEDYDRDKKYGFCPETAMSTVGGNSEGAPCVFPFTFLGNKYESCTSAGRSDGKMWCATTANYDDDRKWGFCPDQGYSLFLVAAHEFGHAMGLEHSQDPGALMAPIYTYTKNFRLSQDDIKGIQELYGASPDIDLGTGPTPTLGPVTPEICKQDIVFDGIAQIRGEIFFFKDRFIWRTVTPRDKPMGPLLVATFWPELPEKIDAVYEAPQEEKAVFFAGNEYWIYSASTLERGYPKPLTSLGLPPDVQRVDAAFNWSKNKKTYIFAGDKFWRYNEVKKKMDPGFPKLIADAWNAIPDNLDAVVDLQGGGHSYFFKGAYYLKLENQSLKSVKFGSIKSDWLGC

[4] = target: T2, Interstitial collagenase (Homo sapiens, UniProt P03956); experiment: Inhibition of human matrix metalloprotease-1
T2 sequence (P03956 whole entry): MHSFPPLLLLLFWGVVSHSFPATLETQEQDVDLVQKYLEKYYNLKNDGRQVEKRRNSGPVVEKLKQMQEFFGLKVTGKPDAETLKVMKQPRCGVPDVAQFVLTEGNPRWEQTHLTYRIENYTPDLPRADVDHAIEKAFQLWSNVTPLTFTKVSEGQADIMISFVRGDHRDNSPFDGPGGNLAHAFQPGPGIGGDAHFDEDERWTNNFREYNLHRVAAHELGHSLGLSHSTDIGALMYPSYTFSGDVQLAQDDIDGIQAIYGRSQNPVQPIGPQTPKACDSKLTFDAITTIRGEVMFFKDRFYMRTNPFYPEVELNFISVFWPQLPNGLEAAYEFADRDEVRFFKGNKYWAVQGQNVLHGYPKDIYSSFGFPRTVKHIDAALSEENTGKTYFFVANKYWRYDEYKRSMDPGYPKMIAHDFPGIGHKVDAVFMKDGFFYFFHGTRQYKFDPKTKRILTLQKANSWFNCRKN

[5] = target: T1, 72 kDa type IV collagenase; experiment: Inhibition of human Matrix metalloprotease-2
[6] = target: Stromelysin-1 (Homo sapiens, UniProt P08254); experiment: Inhibition of human Matrix metalloprotease-3
Stromelysin-1, sequence (P08254 whole entry): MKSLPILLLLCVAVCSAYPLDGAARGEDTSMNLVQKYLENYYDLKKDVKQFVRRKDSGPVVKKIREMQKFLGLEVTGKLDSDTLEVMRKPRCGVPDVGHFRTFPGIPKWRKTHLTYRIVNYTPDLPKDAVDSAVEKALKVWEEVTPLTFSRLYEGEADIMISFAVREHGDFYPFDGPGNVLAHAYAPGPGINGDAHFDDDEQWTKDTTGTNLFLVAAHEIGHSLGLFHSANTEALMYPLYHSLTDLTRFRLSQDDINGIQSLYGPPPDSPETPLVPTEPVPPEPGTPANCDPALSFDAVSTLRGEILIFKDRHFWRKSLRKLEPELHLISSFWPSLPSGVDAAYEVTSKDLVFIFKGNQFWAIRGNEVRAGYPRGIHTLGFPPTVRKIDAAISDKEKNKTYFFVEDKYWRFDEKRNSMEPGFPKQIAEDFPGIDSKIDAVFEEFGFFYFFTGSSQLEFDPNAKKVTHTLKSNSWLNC

Neutrophil collagenase, sequence (P22894 whole entry): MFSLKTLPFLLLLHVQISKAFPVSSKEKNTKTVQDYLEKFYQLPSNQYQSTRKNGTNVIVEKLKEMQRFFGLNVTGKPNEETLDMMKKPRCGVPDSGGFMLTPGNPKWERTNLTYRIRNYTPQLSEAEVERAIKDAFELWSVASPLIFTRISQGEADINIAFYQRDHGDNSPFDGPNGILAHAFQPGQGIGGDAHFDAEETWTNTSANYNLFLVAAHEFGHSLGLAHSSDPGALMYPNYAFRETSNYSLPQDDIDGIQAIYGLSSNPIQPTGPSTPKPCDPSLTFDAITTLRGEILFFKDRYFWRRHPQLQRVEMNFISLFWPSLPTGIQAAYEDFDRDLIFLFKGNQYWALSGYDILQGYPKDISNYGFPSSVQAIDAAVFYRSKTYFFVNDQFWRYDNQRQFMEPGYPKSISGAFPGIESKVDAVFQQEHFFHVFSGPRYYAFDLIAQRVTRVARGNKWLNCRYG

Row | Ki [1] | Ki [2] | Ki [3] | Ki [4] | Ki [5] | Ki [6] | SMILES
1 |  |  |  |  | 2 µM |  | O=C(O)C(Cc1ccccc1)NS(=O)(=O)c1ccc(-c2ccccc2)cc1 (stereo not drawn)
2 |  |  |  |  | 2 µM |  | O=C(O)C(Cc1ccccc1)NS(=O)(=O)c1ccc(-c2ccc(Cl)cc2)cc1 (stereo not drawn)
3 |  | 10 µM | 8 µM | 14 µM |  |  | CC(=O)Nc1ccc(S(=O)(=O)N[C@@H](Cc2ccccc2)C(=O)N[C@@H](C)C(=O)Nc2n[nH]c(=S)s2)cc1
4 | 23 µM | 20 µM | 20 µM | 30 µM |  |  | Cc1ccc(S(=O)(=O)N[C@@H](Cc2ccccc2)C(=O)N[C@@H](C)C(=O)Nc2n[nH]c(=S)s2)cc1
5 |  |  |  |  | 2 µM |  | CC(C)C(NS(=O)(=O)c1ccc(-c2ccccc2)cc1)C(=O)O (stereo not drawn)
6 | 45 µM | 53 µM | 33 µM | 72 µM |  |  | C[C@H](NC(=O)[C@H](Cc1ccccc1)NS(=O)(=O)c1ccc2ccccc2c1)C(=O)Nc1n[nH]c(=S)s1
7 | 5 µM | 5 µM | 7 µM | 15 µM |  |  | Cc1ccc(S(=O)(=O)NC(=O)N[C@@H](Cc2ccccc2)C(=O)N[C@@H](C)C(=O)Nc2n[nH]c(=S)s2)cc1
8 |  |  |  |  | 2 µM |  | CC(C)C(NS(=O)(=O)c1ccc(-c2ccc(Cl)cc2)cc1)C(=O)O (stereo not drawn)
9 | 20 µM | 21 µM | 18 µM | 28 µM |  |  | COc1ccc(S(=O)(=O)N[C@@H](Cc2ccccc2)C(=O)N[C@@H](C)C(=O)Nc2n[nH]c(=S)s2)cc1
10 |  |  |  |  | 2 µM |  | O=C(O)C(Cc1ccccc1)NS(=O)(=O)c1ccc(-c2ccc(Br)cc2)cc1 (stereo not drawn)
11 |  | 14 µM | 17 µM | 19 µM |  |  | C[C@H](NC(=O)[C@H](Cc1ccccc1)NS(=O)(=O)c1ccc(F)cc1)C(=O)Nc1n[nH]c(=S)s1
12 |  | 18 µM | 17 µM | 21 µM |  |  | C[C@H](NC(=O)[C@H](Cc1ccccc1)NS(=O)(=O)c1ccc(I)cc1)C(=O)Nc1n[nH]c(=S)s1
13 | 10 µM | 18 µM | 12 µM | 15 µM |  |  | C[C@H](NC(=O)[C@H](Cc1ccccc1)NS(=O)(=O)c1ccc([N+](=O)[O-])cc1)C(=O)Nc1n[nH]c(=S)s1
14 |  |  |  |  |  | 0.019 µM | O=C(O)[C@H](Cc1c[nH]c2ccccc12)NS(=O)(=O)c1ccc(N2CCC(c3ccccc3)CC2)cc1
15 |  | 21 µM | 15 µM | 24 µM |  |  | C[C@H](NC(=O)[C@H](Cc1ccccc1)NS(=O)(=O)c1ccc(Br)cc1)C(=O)Nc1n[nH]c(=S)s1
16 | 0.2 µM | 0.4 µM | 4 µM | 10 µM |  |  | C[C@H](NC(=O)[C@H](Cc1ccccc1)NC(=O)NS(=O)(=O)c1ccc(Cl)cc1)C(=O)Nc1n[nH]c(=S)s1

Second part, the compound before the results:

Row | SMILES | Ki [1] | Ki [2] | Ki [3] | Ki [4] | Ki [5] | Ki [6]
17 | C[C@H](NC(=O)[C@H](Cc1ccccc1)NC(=O)NS(=O)(=O)c1ccc(F)cc1)C(=O)Nc1n[nH]c(=S)s1 | 0.1 µM | 0.3 µM | 2 µM | 12 µM |  | 
18 | Cc1cc(C)c(S(=O)(=O)N[C@@H](Cc2ccccc2)C(=O)N[C@@H](C)C(=O)Nc2n[nH]c(=S)s2)c(C)c1 | 25 µM | 29 µM | 24 µM | 33 µM |  | 
19 | C[C@H](NC(=O)[C@H](Cc1ccccc1)NS(=O)(=O)c1cccc(C(F)(F)F)c1)C(=O)Nc1n[nH]c(=S)s1 |  | 5 µM | 11 µM | 13 µM |  | 
20 | C[C@H](NC(=O)[C@H](Cc1ccccc1)NS(=O)(=O)c1ccc(Cl)cc1)C(=O)Nc1n[nH]c(=S)s1 |  | 15 µM | 16 µM | 20 µM |  | 
21 | C[C@H](NC(=O)[C@H](Cc1ccccc1)NS(=O)(=O)c1cccc2cccnc12)C(=O)Nc1n[nH]c(=S)s1 | 39 µM | 45 µM | 41 µM | 74 µM |  | 
22 | C[C@H](NC(=O)[C@H](Cc1ccccc1)NS(=O)(=O)c1cccc2ccccc12)C(=O)Nc1n[nH]c(=S)s1 |  | 44 µM | 36 µM | 80 µM |  | 
23 | C[C@H](NC(=O)[C@H](Cc1ccccc1)NS(=O)(=O)CC12CCC(CC1=O)C2(C)C)C(=O)Nc1n[nH]c(=S)s1 (stereo partly drawn) | 34 µM | 40 µM | 35 µM | 69 µM |  | 
24 | C[C@H](NC(=O)[C@H](Cc1ccccc1)NS(=O)(=O)c1cccs1)C(=O)Nc1n[nH]c(=S)s1 |  | 10 µM | 13 µM | 14 µM |  | 
25 | Cc1ccccc1S(=O)(=O)NC(=O)N[C@@H](Cc1ccccc1)C(=O)N[C@@H](C)C(=O)Nc1n[nH]c(=S)s1 | 6 µM | 7 µM | 8 µM | 19 µM |  | 
26 | C[C@H](NC(=O)[C@H](Cc1ccccc1)NC(=O)NS(=O)(=O)c1ccccc1)C(=O)Nc1n[nH]c(=S)s1 |  | 4 µM | 5 µM | 19 µM |  | 
27 | C[C@H](NC(=O)[C@H](Cc1ccccc1)NS(=O)(=O)c1cccc([N+](=O)[O-])c1)C(=O)Nc1n[nH]c(=S)s1 | 13 µM | 18 µM | 12 µM | 18 µM |  | 
28 | C[C@H](NC(=O)[C@H](Cc1ccccc1)NS(=O)(=O)Cc1ccccc1)C(=O)Nc1n[nH]c(=S)s1 |  | 16 µM | 16 µM | 24 µM |  | 
29 | C[C@H](NC(=O)[C@H](Cc1ccccc1)NS(=O)(=O)c1c(F)c(F)c(F)c(F)c1F)C(=O)Nc1n[nH]c(=S)s1 | 1 µM | 2 µM | 6 µM |  |  | 
30 | C[C@H](NC(=O)[C@H](Cc1ccccc1)NS(=O)(=O)c1ccccc1)C(=O)Nc1n[nH]c(=S)s1 | 24 µM | 15 µM | 18 µM | 22 µM |  | 
31 | C[C@H](NC(=O)[C@H](Cc1ccccc1)NS(=O)(=O)c1cccc2c(N(C)C)cccc12)C(=O)Nc1n[nH]c(=S)s1 | 48 µM | 50 µM | 40 µM | 87 µM |  | 
32 | C[C@H](NC(=O)[C@H](Cc1ccccc1)NS(=O)(=O)c1cc(Cl)ccc1Cl)C(=O)Nc1n[nH]c(=S)s1 | 9 µM | 17 µM | 10 µM | 19 µM |  | 
33 | C[C@H](NC(=O)[C@H](Cc1ccccc1)NS(=O)(=O)c1ccccc1[N+](=O)[O-])C(=O)Nc1n[nH]c(=S)s1 | 17 µM | 14 µM | 15 µM | 29 µM |  | 
